# Laboratory results: ChEMBL document CHEMBL4419172, “Small molecule inhibitors of polynucleotide kinase/phosphatase, poly(ADP-ribose) polymerase and uses thereof” (2017)
# Activity calls are given as the source filed them. No cut-off for these calls is given here. Starred links: 1 amine or outer side, 2 acyl side, 3 side chain; linkers in the order of their positions; H or OH if unused. Positions of bridges follow the written chain, without caps; N, C: chain ends. Non-standard residues stand in square brackets, D forms with d. Residues, ends and D or L forms follow the SMILES beside them. Adda = CO[C@@H](Cc1ccccc1)[C@@H](C)/C=C(C)/C=C/[C@H](N[*:1])[C@H](C)C(=O)[*:2]; dAsp(3S-Me) = C[C@H](C(=O)[*:3])[C@@H](N[*:1])C(=O)[*:2]; d(γGlu) = O=C(O)[C@@H](CCC(=O)[*:2])N[*:1]; NMeDha = C=C(NC)C(=O)O
# Assays:
# [1] = Cytotoxicity against human MDA-MB-231 cells assessed as reduction in cell proliferation at >100 uM incubated for 72 hrs by cell-titer 96 aqueous non-radioactive cell proliferation assay; format: cell-based
# [2] = Cytotoxicity against human A549 cells assessed as reduction in cell proliferation at >100 uM incubated for 72 hrs by cell-titer 96 aqueous non-radioactive cell proliferation assay; format: cell-based
# Rattus norvegicus [3] = organism: Rattus norvegicus; test: Inhibition of rat delta-calcineurin expressed in Escherichia coli assessed as reduction in phosphatase activity by measuring release of inorganic phosphate at 83.3 uM using 5'-TAMRA-tagged 20-mer oligonucleotide as substrate incubated for 30 mins by fluorescence quenching based assay
# [4] = biological target: Bifunctional polynucleotide phosphatase/kinase (Mus musculus) (UniProt Q9JLV6); test: Inhibition of mouse PNKP assessed as reduction in PNKP 3'-phosphatase activity by measuring release of inorganic phosphate at 5 to 50 uM using 5'-TAMRA-tagged 20-mer oligonucleotide as substrate incubated for 30 mins by fluorescence quenching based assay
# Bifunctional polynucleotide phosphatase/kinase (Mus musculus), sequence (Q9JLV6 whole entry): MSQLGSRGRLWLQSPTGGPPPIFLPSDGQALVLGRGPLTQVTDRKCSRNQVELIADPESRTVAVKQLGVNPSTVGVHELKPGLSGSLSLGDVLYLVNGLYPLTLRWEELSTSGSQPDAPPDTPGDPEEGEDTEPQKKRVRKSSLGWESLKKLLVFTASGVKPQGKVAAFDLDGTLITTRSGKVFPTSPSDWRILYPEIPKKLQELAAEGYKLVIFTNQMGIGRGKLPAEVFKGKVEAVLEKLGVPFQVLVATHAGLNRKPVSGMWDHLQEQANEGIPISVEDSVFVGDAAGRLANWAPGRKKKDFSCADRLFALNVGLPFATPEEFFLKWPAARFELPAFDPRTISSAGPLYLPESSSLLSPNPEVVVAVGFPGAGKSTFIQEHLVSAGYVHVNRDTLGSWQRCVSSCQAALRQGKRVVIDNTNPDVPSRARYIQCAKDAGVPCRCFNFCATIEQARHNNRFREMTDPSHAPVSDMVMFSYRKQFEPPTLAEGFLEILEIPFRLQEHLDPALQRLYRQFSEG
# A549 [5] = test: Chemosensitizer activity in human A549 cells assessed as reduction in cell survival at 1 uM pre-incubated for 2 hrs prior to camptothecin and further incubated for 24 hrs and measured after 10 to 14 days by crystal violet staining based by clonogenic assay relative to control; format: functional
# M059J = test: Antiproliferative activity against human M059J cells expressing non-functional DNA dependent protein kinase assessed as reduction in cell survival at 1 to 5 uM by MTS assay; format: cell-based
# [6] = Cytotoxicity against human MDA-MB-231 cells assessed as reduction in cell proliferation at 100 uM incubated for 72 hrs by cell-titer 96 aqueous non-radioactive cell proliferation assay; format: cell-based
# A549 [7] = test: Radiosensitizer activity in human A549 cells assessed as reduction in cell survival at 1 uM pre-incubated for 2 hrs prior to gamma irradiation and further incubated for 24 hrs and measured after 14 days by crystal violet staining based by clonogenic assay relative to control; format: functional
# [8] = Cytotoxicity against human A549 cells assessed as reduction in cell proliferation at 100 uM incubated for 72 hrs by cell-titer 96 aqueous non-radioactive cell proliferation assay; format: cell-based
# A549 [9] = test: Cytotoxicity against human A549 cells assessed as reduction in cell proliferation at 1 uM incubated for 72 hrs by cell-titer 96 aqueous non-radioactive cell proliferation assay; format: cell-based; details: a549, 72 h
# A549 [10] = test: Radiosensitizer activity in PNKP-depleted human A549 cells assessed as reduction in cell survival at 1 uM pre-incubated for 2 hrs prior to gamma irradiation and further incubated for 24 hrs and measured after 14 days by crystal violet staining based by clonogenic assay relative to control; format: functional
# MDA-MB-231 [11] = test: Radiosensitizer activity in human MDA-MB-231 cells assessed as reduction in cell survival at 1 uM pre-incubated for 2 hrs prior to gamma irradiation and further incubated for 24 hrs and measured after 14 days by crystal violet staining based by clonogenic assay relative to control; format: functional
# MDA-MB-231 [12] = test: Cytotoxicity against human MDA-MB-231 cells assessed as reduction in cell proliferation at 1 uM incubated for 72 hrs by cell-titer 96 aqueous non-radioactive cell proliferation assay; format: cell-based; details: mda-mb-231, 72 h
# Aprataxin (Homo sapiens) = Aprataxin (Homo sapiens) (UniProt Q7Z2E3); test: Inhibition of human APTX assessed as reduction in phosphatase activity by measuring release of inorganic phosphate at 50 uM using 5'-TAMRA-tagged 20-mer oligonucleotide as substrate incubated for 30 mins by fluorescence quenching based assay
# Aprataxin (Homo sapiens), sequence (Q7Z2E3 whole entry): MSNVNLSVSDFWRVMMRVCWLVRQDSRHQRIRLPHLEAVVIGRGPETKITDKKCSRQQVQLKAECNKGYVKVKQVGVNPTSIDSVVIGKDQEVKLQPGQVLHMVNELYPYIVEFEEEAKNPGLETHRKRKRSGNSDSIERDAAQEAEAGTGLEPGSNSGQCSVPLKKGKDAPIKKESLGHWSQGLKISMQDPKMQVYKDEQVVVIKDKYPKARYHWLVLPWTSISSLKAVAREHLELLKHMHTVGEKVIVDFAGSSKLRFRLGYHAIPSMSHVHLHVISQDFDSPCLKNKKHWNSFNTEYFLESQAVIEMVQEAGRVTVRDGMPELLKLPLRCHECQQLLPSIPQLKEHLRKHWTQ
# [13] = biological target: Serine/threonine-protein phosphatase PP1-gamma catalytic subunit (Homo sapiens) (UniProt P36873); test: Inhibition of human PP-1cgamma expressed in Escherichia coli assessed as reduction in phosphatase activity by measuring release of inorganic phosphate at 83.3 uM using 5'-TAMRA-tagged 20-mer oligonucleotide as substrate incubated for 30 mins by fluorescence quenching based assay
# Serine/threonine-protein phosphatase PP1-gamma catalytic subunit (Homo sapiens), sequence (P36873 2-323 limits assumed): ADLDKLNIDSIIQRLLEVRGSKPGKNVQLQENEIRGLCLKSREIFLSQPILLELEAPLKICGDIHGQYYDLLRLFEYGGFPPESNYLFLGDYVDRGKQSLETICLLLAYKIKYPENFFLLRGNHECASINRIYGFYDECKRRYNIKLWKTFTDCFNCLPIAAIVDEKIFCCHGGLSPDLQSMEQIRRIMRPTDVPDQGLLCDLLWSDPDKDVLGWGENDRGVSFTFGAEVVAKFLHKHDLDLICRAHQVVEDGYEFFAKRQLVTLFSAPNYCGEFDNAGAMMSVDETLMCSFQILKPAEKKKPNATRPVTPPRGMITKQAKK
# A549 [14] = test: Antiproliferative activity against PNKP-depleted and DNA polymerase-beta dominant negative human A549 cells assessed as reduction in cell survival at 1 to 5 uM by MTS assay; format: functional, cell-based
# MDA-MB-231 [15] = test: Radiosensitizer activity in PNKP-depleted human MDA-MB-231 cells assessed as reduction in cell survival at 1 uM pre-incubated for 2 hrs prior to gamma irradiation and further incubated for 24 hrs and measured after 14 days by crystal violet staining based by clonogenic assay relative to control; format: functional
# Rattus norvegicus [16] = organism: Rattus norvegicus; test: Inhibition of rat delta-calcineurin expressed in Escherichia coli assessed as reduction in phosphatase activity by measuring release of inorganic phosphate using 5'-TAMRA-tagged 20-mer oligonucleotide as substrate incubated for 30 mins by fluorescence quenching based assay
Compound,inhibition at 72 h [1] [%],inhibition at 72 h [2] [%],inhibition (Rattus norvegicus [3]),inhibition [4],Activity (A549 [5]),Activity (M059J),"inhibition at 72 h, 100 µM [6] [%]",fold change (FC) (A549 [7]),"inhibition at 72 h, 100 µM [8] [%]",Activity (A549 [9]),Activity (A549 [10]),Activity (MDA-MB-231 [11]),Activity (MDA-MB-231 [12]),inhibition (Aprataxin (Homo sapiens)),inhibition [13],Activity (A549 [14]),Activity (MDA-MB-231 [15]),inhibition (Rattus norvegicus [16])
CCCCCCCCCCC(O)C1C=CC2C(=O)N(c3ccccc3)C(=O)C2N1Nc1ccc([N+](=O)[O-])cc1 (stereo not drawn),≤ 50,≤ 50,inactive,Active,Active,inactive,≤ 50,2,≤ 50,Non-Toxic,inactive,Active,Non-Toxic,inactive,inactive,Active,inactive,
C=C1C(=O)N[C@H](C)C(=O)N[C@@H](CC(C)C)C(=O)N[C@@H](C(=O)O)[C@H](C)C(=O)N[C@@H](CCCNC(=N)N)C(=O)N[C@@H](/C=C/C(C)=C/[C@H](C)[C@H](Cc2ccccc2)OC)[C@H](C)C(=O)N[C@@H](C(=O)O)CCC(=O)N1C (R[Adda][d(γGlu)][NMeDha][dA]L[dAsp(3S-Me)]-OH; lactam N-7),,,,,,,,,,,,,,,,,,Active
